Results published in PubChem BioAssay AID720578 (The Scripps Research Institute Molecular Screening Center, 2013).
Calls of active or inactive are those of the source. No rule for the calls is given here.

Biological target: Crimean-Congo hemorrhagic fever virus L protein viral ovarian tumor (vOTU) protease domain
Experiment: CCHFV vOTU protease inhibitor potency, dose response, biochemical, fluorescence, Pep-AMC substrate (AID 720578)
Details: recombinant CCHFV vOTU, Pep-AMC fluorescence cleavage

| SMILES | IC50 |
| --- | --- |
| C=CCN1C(=O)/C(=C/c2ccc(OC(C)=O)c(OCC)c2[N+](=O)[O-])SC1=S | 7.63 µM |
| COc1cccc2c1C(=O)c1c(O)c3c(c(O)c1C2=O)C[C@@](O)(C(=O)CO)C[C@@H]3O[C@H]1C[C@H](N)[C@H](O)[C@H](C)O1 | inactive |
| O=C1C=C(N2CCCCC2)c2ccccc2C1=O | 7.75 µM |
| O=c1[nH]c(Nc2ccccc2)cc2cc(Br)ccc12 | 1 µM |
| CN(C)c1ncc(C2=C(Cl)C(=O)C(N3CCCC3)=C(Cl)C2=O)s1 | inactive |
| CC(C)C[C@H](NC(=O)c1[nH]cnc1C(=O)N[C@@H](C)C(=O)OC(C)(C)C)C(=O)OC(C)(C)C | > 115 µM (inactive) |
| O=C(/C=C/c1ccc([N+](=O)[O-])s1)N1CCCCC1 | inactive |
| CCOC(=O)N1CCN(C2=C(NS(=O)(=O)c3ccc(C)cc3)C(=O)c3ccccc3C2=O)CC1 | inactive |
| NC1=CC(=O)C(=O)c2cccnc21 | 1.85 µM |
| O=[N+]([O-])c1cc(O)c2ncccc2c1 | inactive |
| CC1(C)C=C2C(=NN(c3ccccc3)C(N)=C2C#N)CO1 | 1.83 µM |
| O=C1NNC(c2ccccc2)=N/C1=C\c1ccccc1Cl | inactive |
| O=C(NCCCO)c1ccc2nc(-c3ccco3)c(-c3ccco3)nc2c1 | 9.45 µM |
| CCCCCCCCCCOC(=O)Cn1c(COc2ccc(Cl)cc2)[n+](C)c2ccccc21 | inactive |
| Cc1oc2c(c1C(=O)O)C(=O)c1ccccc1C2=O | 9.12 µM |
| Cc1ccc(NC2=C(N3CCCCC3)C(=O)c3ccccc3C2=O)cc1 | 4.46 µM |
| CC(C)=CCC1=C(OCC(=O)O)C(=O)c2ccccc2C1=O | 6.79 µM |
| O=C(O)c1cccc(NC2=C(n3nnc4ccccc43)C(=O)c3ccccc3C2=O)c1 | 4.76 µM |
| CCCCCCCCCCCCCCCC[n+]1ccccc1 | inactive |
| O=C1C(Nc2cccc(O)c2)=C(N2CCCCC2)C(=O)c2ccccc21 | 3.6 µM |
| O=C(NC1=C(NC2CCS(=O)(=O)C2)C(=O)c2ccccc2C1=O)c1ccccc1 (stereo not given) | 3.93 µM |
| COc1cc(NCCCC(C)N)c2ncccc2c1 (stereo not given) | 2.52 µM |

| SMILES | IC50 |
| --- | --- |
| c1coc(-c2nnc(-c3ccco3)nn2)c1 | 9.33 µM |
| O=C(NC(=S)Nc1ccccc1N1CCCC1)c1cccs1 | inactive |
| COCCN1C=C2C(=O)C(C)(OC(=O)C3CCCC3)C(=O)C(c3ccccc3)=C2C=C1CCCC(=O)OC (stereo not given) | inactive |
| CCc1ccc(S(=O)(=O)/N=C2\C=C(Nc3cccc(C(=O)O)c3)C(=O)c3ccccc32)cc1 | 0.833 µM |
| Cc1ccc(CNc2ccc(O)cc2)cc1 | inactive |
| Cc1ccccc1NC1=C/C(=N\S(=O)(=O)c2cccs2)c2ccccc2C1=O | 0.249 µM |
| O=C(O)c1ccc(NC2=C(n3nnc4ccccc43)C(=O)c3ccccc3C2=O)cc1 | 4.59 µM |
| CC(=O)NC1=C(N(C)C2CCS(=O)(=O)C2)C(=O)c2ccccc2C1=O (stereo not given) | 8.88 µM |
| CCn1nc(/C=C/c2ccccc2)nc2c(=O)n(C)c(=O)nc1-2 | 0.276 µM |
| NC(=S)N=Nc1c(O)cc(O)c2[nH]c(=O)ccc12 | 9.78 µM |
| O=C(O)CCCNc1cc(N2CCN(C(=O)c3ccco3)CC2)c2noc3c2c1C(=O)c1ccccc1-3 | 5.72 µM |
| CC(=O)N(C)c1ccc(N=Cc2cc3c(cc2[N+](=O)[O-])OCO3)cc1 | inactive |
| COc1cc(NC(=O)COC(=O)c2ccc([N+](=O)[O-])s2)cc(OC)c1OC | 6.6 µM |
| COc1ccc(CNC(=O)c2c(C)oc3c2C(=O)c2ccccc2C3=O)cc1 | 8.2 µM |
| O=C(c1ccccc1)c1coc2c1C(=O)c1ccccc1C2=O | 6.61 µM |
| C[n+]1cccc2cccc([O-])c21 | 6.41 µM |
| CC(=O)N(C1=C(N)C(=O)c2ccccc2C1=O)c1ccccc1 | 8.38 µM |
| NC1=C(Cl)C(=O)c2ccc(S(N)(=O)=O)cc2C1=O | 0.127 µM |
| CCCCn1c(NS(=O)(=O)c2ccccc2)c(C(=O)OCC)c2nc3ccccc3nc21 | > 115 µM (inactive) |
| Cc1ccc2c(c1C)-c1c(ccc(C)c1C)C(=O)C2=O | 7.79 µM |
| O=C1Cc2ccccc2C(=O)N1CCc1ccccc1 | 1.14 µM |
| Clc1ccc(C2=CSC3=Nc4cccc5cccc(c45)N23)cc1 | inactive |

| SMILES | IC50 |
| --- | --- |
| CC(=O)c1ccc(NC(=S)Nc2cccc3cnccc23)cc1 | 6.84 µM |
| CC(=O)c1ccc(NC2=C(N3CCOCC3)C(=O)c3ccccc3C2=O)cc1 | inactive |
| O=C(N/N=C1\C/C(=N\NC(=O)c2ccncc2)c2ccccc21)c1ccncc1 | 0.701 µM |
| CCC(C)n1c(NC(=O)c2ccccc2)c(C#N)c2nc3ccccc3nc21 (stereo not given) | 8.97 µM |
| CC1CCCC(NC(=O)COC(=O)c2ccc([N+](=O)[O-])s2)C1C (stereo not given) | 9.22 µM |
| O=C(/C=C/c1ccc(O)cc1)c1ccc(NC2=C(N3CCCCC3)C(=O)c3ccccc3C2=O)cc1 | 3.35 µM |
| CC[C@H](CO)Oc1cc(NCc2cccc(N)c2)c2ncn(C(C)C)c2c1 | 6.52 µM |
| Cc1coc2c(O)cc3c(c12)OC1(N2CCCCC2)C(=O)NCCCC31 (stereo not given) | inactive |
| Cc1nc2c(o1)C(=O)c1ccccc1C2=Nc1ccccc1 | 7.89 µM |
| CCC(COC)Oc1cc(NCc2ccccc2)c2ncn(C(C)C)c2c1 (stereo not given) | 5.43 µM |
| Cc1cc(NC2=CC(=O)C(=O)c3ccccc32)no1 | 5.6 µM |
| COc1cc2c(cc1O)[C@@H]1Cc3ccc(OC)c(O)c3CN1CC2 | 7.49 µM |
| CN(C1=C(NC(=O)c2ccccc2)C(=O)c2ccccc2C1=O)C1CCS(=O)(=O)C1 (stereo not given) | 2.43 µM |
| COc1ccc2noc3c2c1C(=O)c1ccccc1-3 | 3.08 µM |
| Cc1ccc(N2C(=O)[C@@H]3[C@H](C2=O)C2c4ccccc4C=CN2[C@@H]3C(=O)c2ccco2)cc1 (stereo not given in full) | 4.21 µM |
| O=C1Nc2ccc([N+](=O)[O-])cc2C1=Nc1cccc(CO)c1 | 8.78 µM |
| CN1CCC/C1=C/C=C1\SC(=S)NC1=O | inactive |
| COc1cc(CCNC2=CC(=O)c3ncccc3C2=O)ccc1O | 5.25 µM |
| O=C(O)c1cc(O)c2c(c1)[C@H]([C@H]1c3cc(C(=O)O)cc(O)c3C(=O)c3c(O[C@@H]4O[C@H](CO)[C@@H](O)[C@H](O)[C@H]4O)cccc31)c1cccc(OC3O[C@H](CO)[C@@H](O)[C@H](O)[C@H]3O)c1C2=O (stereo not given in full) | 6.47 µM |
| Cc1cnc(C2OCCO2)c2cccc(N)c12 | 2.56 µM |
| COc1cc(NCCCCCCN)c2ncccc2c1OC | 3.65 µM |
| COC1=CC(=O)c2c(ccc3ncnc(N)c23)C1=O | 0.396 µM |

| SMILES | IC50 |
| --- | --- |
| C=CCN1C=CC(=C/C=C(/C#N)C(=O)OCC)C=C1 | inactive |
| CCOc1ccc(NC(=S)Nc2ccc3nsnc3c2)cc1 | 7.51 µM |
| O=C1NC(c2ccc(-c3ccccc3[N+](=O)[O-])o2)C(C(=O)c2ccc(Cl)cc2)C(O)(C(F)(F)F)N1 (stereo not given) | inactive |
| O=C1C(=NO)CCc2ccccc21 | 3.36 µM |
| CCCNC1=C(N(C(C)=O)c2cccc(F)c2)C(=O)c2ccccc2C1=O | inactive |
| C[n+]1c2ccccc2nc2ccc(NCCO)cc21 | 5.96 µM |
| COc1cc(NC(C)CCCN)c2ncccc2c1 (stereo not given) | inactive |
| Cc1ccc(NC2=C(N3CCOCC3)C(=O)c3ccccc3C2=O)cc1 | 4.31 µM |
| CN1/C(=C\C=C2C(=O)NC(=O)NC2=O)C(C)(C)c2ccccc21 | inactive |
| NS(=O)(=O)c1ccc(NC(=O)COC(=O)c2ccc([N+](=O)[O-])s2)cc1 | 8.31 µM |
| O=C1Cc2ccccc2C(=O)N1Cc1ccccc1 | 1.28 µM |
| Cc1ccc(NC2=C/C(=N/S(=O)(=O)c3cccs3)c3ccccc3C2=O)cc1 | 0.405 µM |
| CCOC(=O)c1c2c(n(Cc3ccccc3)c1C)C(=O)C(=O)c1ccccc1-2 | 2.16 µM |
| O=C(COC(=O)c1ccc([N+](=O)[O-])s1)Nc1ccc(F)cc1 | 7.79 µM |
| COC(=O)c1nc(-c2ccc3c(n2)C(=O)C(N)=C(OC)C3=O)c(N)c(-c2ccc(OC)c(OC)c2O)c1C | 0.931 µM |
| COC(CNC(=O)c1ccc2c3c(onc13)-c1ccccc1C2=O)OC | 3.5 µM |
| COc1ccccc1Nc1cc2cc(Br)ccc2c(=O)[nH]1 | 1.05 µM |
| Cc1ccc(S(=O)(=O)/N=C2\C=C(Nc3cccc(C(=O)O)c3)C(=O)c3ccccc32)cc1 | 0.771 µM |
| C[n+]1c(-c2ccccc2)c2cc(N)ccc2c2ccc(N)cc21 | 3.68 µM |
| O=C(COC(=O)c1ccc([N+](=O)[O-])s1)Nc1ccccc1 | inactive |
| Oc1ccccc1CNc1cccc2cccnc12 | 9.96 µM |
| Cc1ccccc1NC1=C/C(=N\S(=O)(=O)c2ccc(C(=O)O)cc2)c2ccccc2C1=O | 0.257 µM |

| SMILES | IC50 |
| --- | --- |
| O=C1C=C(NCc2ccccc2)c2ccccc2C1=O | 6.23 µM |
| CCCCCCCCCCCCN1[C@@H](CC(=O)O)c2cc(F)ccc2S1(=O)=O | inactive |
| CCOC(=O)c1cc2c(ccn2C)n1Cc1ccccc1C | > 115 µM (inactive) |
| COC1=C(N)C(=O)c2nc(C)ccc2C1=O | 1.37 µM |
| S=C(Nc1ccc(Cl)cc1)Nc1cccc2cnccc12 | 6.44 µM |
| Oc1c(N=Nc2nn[nH]n2)ccc2ccccc12 | 5.11 µM |
| Nc1cc2c(cc1Br)[nH]c(=O)c1ccccc12 | 3.2 µM |
| O=C1C=C(O)c2[nH]c(=O)ccc2C1=O | 4.26 µM |
| CN(C)c1ccc(C=c2c3cc(O)ccc3n3c2cc(-c2ccccc2)[n+]3C)cc1 | inactive |
| O=[N+]([O-])c1ccccc1-c1ccc(C(=S)N2CCCC2)o1 | inactive |
| CCOC(=O)C1=C(COC(=O)c2ccc([N+](=O)[O-])s2)NC(=O)NC1C (stereo not given) | 7.84 µM |
| CN(C)S(=O)(=O)c1cccc(NC(=S)Nc2cccc3cnccc23)c1 | inactive |
| CN=c1sc2c(n1C)C(=O)c1ccccc1C2=O | 1.78 µM |
| O=C1C=C(Nc2ccccc2)c2ccccc2C1=O | 6.87 µM |
| CC1(OC(=O)C2CCCC2)C(=O)C=C2C=C(c3ccsc3)N(CCCCO)C=C2C1=O (stereo not given) | inactive |
| O=C(COC(=O)c1ccc([N+](=O)[O-])s1)Nc1ccc(Cl)cn1 | 8.32 µM |
| CC(=O)N(/N=C1\Sc2ccccc2C1=O)c1cccc(C)c1 | inactive |
| Oc1c(C=Nc2cccc3nsnc23)ccc2ccccc12 | inactive |
| CC(C)(C)c1cc[n+](C2=C([O-])c3ccccc3C(=O)/C2=N\S(=O)(=O)c2cccs2)cc1 | 6.78 µM |
| N#CC1=C(S)N(c2ccccc2)C(c2ccc(-c3ccc(Cl)c(Cl)c3)o2)NC1=O (stereo not given) | inactive |
| Cc1cc(=O)c2c(o1)C(=O)c1occc1C2=O | 6.05 µM |
| O=C1C=C(Nc2ccccc2C(=O)O)c2ccccc2C1=O | 3.59 µM |
